Source: US11066396B2 (priority 2016, dated 2021)

What was measured:
HDAC5 = HDAC5 (Homo sapiens (Human), UniProt Q9UQL6); conditions: read-out: HDAC5 IC50
HDAC8 = HDAC8 (Homo sapiens (Human), UniProt Q9BY41); conditions: read-out: HDAC8 IC50
HDAC1 = HDAC1 (Homo sapiens (Human), UniProt Q13547); conditions: read-out: HDAC1 IC50
Chain of HDAC1 (Q13547 whole entry): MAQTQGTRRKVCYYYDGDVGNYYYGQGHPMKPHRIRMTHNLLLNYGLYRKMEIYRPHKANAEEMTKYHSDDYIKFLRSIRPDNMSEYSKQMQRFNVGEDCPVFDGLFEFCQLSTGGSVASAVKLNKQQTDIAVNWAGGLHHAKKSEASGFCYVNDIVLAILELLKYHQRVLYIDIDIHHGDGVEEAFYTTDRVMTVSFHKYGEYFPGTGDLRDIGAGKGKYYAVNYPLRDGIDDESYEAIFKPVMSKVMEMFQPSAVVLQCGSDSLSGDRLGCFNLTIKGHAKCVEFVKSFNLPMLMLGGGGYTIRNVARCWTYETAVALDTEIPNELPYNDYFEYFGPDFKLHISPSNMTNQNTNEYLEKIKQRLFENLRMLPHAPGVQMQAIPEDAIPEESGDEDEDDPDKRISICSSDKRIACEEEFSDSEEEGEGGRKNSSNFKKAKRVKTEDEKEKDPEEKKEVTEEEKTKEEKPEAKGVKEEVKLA

Chain of HDAC8 (Q9BY41 whole entry): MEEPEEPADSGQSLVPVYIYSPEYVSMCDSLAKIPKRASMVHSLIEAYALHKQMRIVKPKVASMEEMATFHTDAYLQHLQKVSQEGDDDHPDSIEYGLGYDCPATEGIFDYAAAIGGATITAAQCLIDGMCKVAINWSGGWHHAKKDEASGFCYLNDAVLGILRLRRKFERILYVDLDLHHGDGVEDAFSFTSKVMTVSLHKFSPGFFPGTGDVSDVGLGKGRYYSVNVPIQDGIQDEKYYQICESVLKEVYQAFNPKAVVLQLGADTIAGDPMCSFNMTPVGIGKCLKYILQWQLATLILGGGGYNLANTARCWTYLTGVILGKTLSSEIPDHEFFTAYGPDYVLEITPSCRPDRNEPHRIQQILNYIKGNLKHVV
Chain of HDAC5 (Q9UQL6 656-1122): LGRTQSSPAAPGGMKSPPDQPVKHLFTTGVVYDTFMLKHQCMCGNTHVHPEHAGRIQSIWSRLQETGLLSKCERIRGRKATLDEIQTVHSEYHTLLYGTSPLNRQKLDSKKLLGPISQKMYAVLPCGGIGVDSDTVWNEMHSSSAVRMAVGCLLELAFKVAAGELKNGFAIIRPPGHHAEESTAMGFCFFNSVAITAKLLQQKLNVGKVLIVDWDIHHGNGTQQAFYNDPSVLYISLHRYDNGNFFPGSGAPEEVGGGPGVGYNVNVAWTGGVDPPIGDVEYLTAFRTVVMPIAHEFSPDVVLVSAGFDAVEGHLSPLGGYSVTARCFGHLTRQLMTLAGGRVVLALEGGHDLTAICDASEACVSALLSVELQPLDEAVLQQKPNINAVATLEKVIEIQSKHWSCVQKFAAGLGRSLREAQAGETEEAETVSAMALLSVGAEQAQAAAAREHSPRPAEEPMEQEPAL

SMILES	IC50 (HDAC5) [µM]	IC50 (HDAC8) [µM]	IC50 (HDAC1) [µM]
CCc1nnc([C@@H]2CCC(=O)N2c2cc(F)c(-c3noc(C(F)(F)F)n3)cc2F)o1 [Example 105, (S)-1-(2,5-difluoro-4-(5-(trifluoromethyl)-1,2,4-oxadiazol-3-yl)phenyl)-5-(5-ethyl-1,3,4-oxadiazol-2-yl)pyrrolidin-2-one]	0.018	6.6	0.71
Cn1c([C@@H]2CCC(=O)N2c2ccc(-c3noc(C(F)(F)F)n3)cc2)nc2ccccc21 [Example 108, (S)-5-(1-methyl-1H-benzo[d]imidazol-2-yl)-1-(4-(5-(trifluoromethyl)-1,2,4-oxadiazol-3-yl)phenyl)pyrrolidin-2-one]	0.12	2.9	2
O=C1CCC(c2ccccc2Cl)N1c1ccc(-c2noc(C(F)(F)F)n2)cc1F (stereo not drawn) [Example 117, 5-(2-chlorophenyl)-1-(2-fluoro-4-(5-(trifluoromethyl)-1,2,4-oxadiazol-3-yl)phenyl)pyrrolidin-2-one]	0.14	3.1	1.8
Cc1noc([C@@H]2CCC(=O)N2c2ccc(-c3noc(C(F)(F)F)n3)cc2)n1 [Example 122, (S)-5-(3-methyl-1,2,4-oxadiazol-5-yl)-1-(4-(5-(trifluoromethyl)-1,2,4-oxadiazol-3-yl)phenyl)pyrrolidin-2-one]	0.021	1.4	0.73
CC(C)(C)OC(=O)[C@@H]1CCC(=O)N1c1ccc(-c2noc(C(F)(F)F)n2)c(F)c1F [Example 124, tert-butyl (S)-1-(2,3-difluoro-4-(5-(trifluoromethyl)-1,2,4-oxadiazol-3-yl)phenyl)-5-oxopyrrolidine-2-carboxylate]	0.017	7.4	1.3
O=C1COC[C@@H](c2ccccc2)N1c1ccc(-c2noc(C(F)(F)F)n2)cn1 [Example 126, (R)-5-phenyl-4-(5-(5-(trifluoromethyl)-1,2,4-oxadiazol-3-yl)pyridin-2-yl)morpholin-3-one]	0.19	5	1.4
CC(C)(C)OC(=O)N1C[C@@H](c2cc(F)cc(F)c2)N(c2ccc(-c3noc(C(F)(F)F)n3)cn2)C(=O)C1C1CCOCC1 (stereo partly drawn) [Example 127, tert-butyl (5R)-5-(3,5-difluorophenyl)-3-oxo-2-(tetrahydro-2H-pyran-4-yl)-4-(5-(5-(trifluoromethyl)-1,2,4-oxadiazol-3-yl)pyridin-2-yl)piperazine-1-carboxylate]	0.36	> 45	7.3
FC(F)(F)c1nc(-c2ccc(N3CCOCC3c3ccccc3Cl)nc2)no1 (stereo not drawn) [Example 130, 3-(2-chlorophenyl)-4-(5-(5-(trifluoromethyl)-1,2,4-oxadiazol-3-yl)pyridin-2-yl)morpholine]	0.074	1.5	0.48
FC(F)(F)c1nc(-c2ccc(N3CCOCC3c3cccnc3)nc2)no1 (stereo not drawn) [Example 133, 3-(pyridin-3-yl)-4-(5-(5-(trifluoromethyl)-1,2,4-oxadiazol-3-yl)pyridin-2-yl)morpholine]	0.031	0.35	0.16
Cc1noc([C@@H]2CCCCN2c2ccc(-c3noc(C(F)(F)F)n3)cn2)n1 [Example 140, (S)-3-methyl-5-(1-(5-(5-(trifluoromethyl)-1,2,4-oxadiazol-3-yl)pyridin-2-yl)piperidin-2-yl)-1,2,4-oxadiazole]	0.15	1	0.93
O=C1COC[C@@H](c2ccccc2)N1c1cc(F)c(-c2noc(C(F)(F)F)n2)cc1F [Example 160, (R)-4-(2,5-difluoro-4-(5-(trifluoromethyl)-1,2,4-oxadiazol-3-yl)phenyl)-5-phenylmorpholin-3-one]	0.003	12	1.3
FC(F)(F)c1nc(-c2ccnc(OCCc3cccc4cn[nH]c34)c2)no1 [Example 167]	0.9	0.48	2.5
Fc1cc(COc2ccccc2)ccc1-c1noc(C(F)(F)F)n1 [Example 172, 3-(2-Fluoro-4-(phenoxymethyl)phenyl)-5-(trifluoromethyl)-1,2,4-oxadiazole]	0.76	45	45
O=C(C1CCS(=O)(=O)CC1)N(Cc1ccc(-c2noc(C(F)(F)F)n2)nn1)c1cccc(C(F)(F)F)c1 [Example 173, N-((6-(5-(Trifluoromethyl)-1,2,4-oxadiazol-3-yl)pyridazin-3-yl)methyl)-N′-(3-(trifluoromethyl)phenyl)tetrahydro-2H-thiopyran-4-carboxamide 1,1-dioxide]	8.3	6.3	1.1
O=C(NC(Cc1ccc(-c2noc(C(F)(F)F)n2)cn1)c1cccc(C(F)(F)F)c1)C(F)(F)F (stereo not drawn) [Example 176, 2,2,2-Trifluoro-N-(2-(5-(5-(trifluoromethyl)-1,2,4-oxadiazol-3-yl)pyridin-2-yl)-1-(3-(trifluoromethyl)phenyl)ethyl)acetamide]	0.32	45	1.3
CC(=O)NC(Cc1ccc(-c2noc(C(F)(F)F)n2)cn1)c1cccc(C(F)(F)F)c1 (stereo not drawn) [Example 177, N-(2-(5-(5-(Trifluoromethyl)-1,2,4-oxadiazol-3-yl)pyridin-2-yl)-1-(3-(trifluoromethyl)phenyl)ethyl)acetamide]	0.42	4.5	0.53
CS(=O)(=O)NC(Cc1ccc(-c2noc(C(F)(F)F)n2)cn1)c1cccc(C(F)(F)F)c1 (stereo not drawn) [Example 178, N-(2-(5-(5-(Trifluoromethyl)-1,2,4-oxadiazol-3-yl)pyridin-2-yl)-1-(3-(trifluoromethyl)phenyl)ethyl)methanesulfonamide]	0.32	3.7	0.41
Cc1nc(Cl)cnc1COc1ccc(-c2noc(C(F)(F)F)n2)cn1 [Example 184, 3-(6-((5-Chloro-3-methylpyrazin-2-yl)methoxy)pyridin-3-yl)-5-(trifluoromethyl)-1,2,4-oxadiazole]	1.1	2.7	2.3
Cc1cc(C)nc(COc2nccc(-c3noc(C(F)(F)F)n3)c2Cl)n1 [Example 186, 3-(3-Chloro-2-((4,6-dimethylpyrimidin-2-yl)methoxy)pyridin-4-yl)-5-(trifluoromethyl)-1,2,4-oxadiazole]	0.85	3.9	8.1
Fc1c(-c2noc(C(F)(F)F)n2)ccnc1OCc1nc(C2CC2)no1 [Example 187, 3-Cyclopropyl-5-(((3-fluoro-4-(5-(trifluoromethyl)-1,2,4-oxadiazol-3-yl)pyridin-2-yl)oxy)methyl)-1,2,4-oxadiazole]	0.22	1.5	1.5
O=C(COc1cc(-c2noc(C(F)(F)F)n2)ccn1)N1CCOCC1 [Example 190, 1-Morpholino-2-((4-(5-(trifluoromethyl)-1,2,4-oxadiazol-3-yl)pyridin-2-yl)oxy)ethan-1-one]	0.55	1.1	2.2
O=C(NCc1ccc(-c2noc(C(F)(F)F)n2)cc1)C1CCCC1 [Example 191, N-(4-(5-(Trifluoromethyl)-1,2,4-oxadiazol-3-yl)benzyl)cyclopentanecarboxamide]	0.94	2.9	2.2
CC(C)NC(=O)OCc1ccc(-c2noc(C(F)(F)F)n2)cn1 [Example 192, (5-(5-(Trifluoromethyl)-1,2,4-oxadiazol-3-yl)pyridin-2-yl)methyl isopropylcarbamate]	0.64	1.8	0.66
CNC(=O)OCc1ccc(-c2noc(C(F)(F)F)n2)cn1 [Example 194, {5-[5-(trifluoromethyl)-1,2,4-oxadiazol-3-yl]pyridin-2-yl}methyl methylcarbamate]	0.61	1.3	1.7
O=C(NC1CCOCC1)OCc1ccc(-c2noc(C(F)(F)F)n2)cn1 [Example 195, {5-[5-(trifluoromethyl)-1,2,4-oxadiazol-3-yl]pyridin-2-yl}methyl oxan-4-ylcarbamate]	0.66	1.6	0.78
CN(C(=O)[C@@H]1COCC(=O)N1c1ccc(-c2noc(C(F)(F)F)n2)c(F)c1)C(C)(C)C [Example 196, (3S)-N-tert-butyl-4-{3-fluoro-4-[5-(trifluoromethyl)-1,2,4-oxadiazol-3-yl]phenyl}-N-methyl-5-oxomorpholine-3-carboxamide]	0.3	6.3	6.9
O=C(OCCOCCCl)[C@@H]1CCC(=O)N1c1ccc(-c2noc(C(F)(F)F)n2)c(F)c1 [Example 197, 2-(2-chloroethoxy)ethyl 1-{3-fluoro-4-[5-(trifluoromethyl)-1,2,4-oxadiazol-3-yl]phenyl}-5-oxo-L-prolinate]	0.05	0.11	1.2
COC(=O)N1CCC(C(=O)N(Cc2ccc(-c3noc(C(F)(F)F)n3)cn2)c2cccc(C(F)(F)F)c2)CC1 [Example 198, methyl 4-{({5-[5-(trifluoromethyl)-1,2,4-oxadiazol-3-yl]pyridin-2-yl}methyl)[3-(trifluoromethyl)phenyl]carbamoyl}piperidine-1-carboxylate]	0.65	1.3	0.48
FC(F)(F)c1nc(-c2ccnc(OCc3nc4ccccc4[nH]3)c2)no1 [Example 200, 2-[({4-[5-(trifluoromethyl)-1,2,4-oxadiazol-3-yl]pyridin-2-yl}oxy)methyl]-1H-benzimidazole]	0.46	0.97	0.45
O=C(C1CCS(=O)(=O)CC1)N(Cc1ccc(-c2noc(C(F)(F)F)n2)cn1)c1ccccc1C(F)(F)F [Example 201, 1,1-dioxo-N-({5-[5-(trifluoromethyl)-1,2,4-oxadiazol-3-yl]pyridin-2-yl}methyl)-N-[2-(trifluoromethyl)phenyl]-llambda~6~-thiane-4-carboxamide]	1.4	9.2	4
